Laboratory results published in patent EP4810500A1, “IMIDAZOL-2-ONE DERIVATIVE AND USE THEREOF IN MEDICINE” (Haisco Pharmaceutical Group Co., Ltd., priority 2023, dated 2025).
pEC50, pIC50: −log10 of the molar value. Where two headings read alike, the source gives them in different places.

Legend:
CYP1A2 = target: T1, CYP1A2 (Homo sapiens, UniProt P05177); experiment: CYP450 enzyme activity inhibition assay (human liver microsomes); format: in vitro ADME
T1 construct: from tissue; host or cells: human liver microsomes
T1 sequence (P05177 1-516): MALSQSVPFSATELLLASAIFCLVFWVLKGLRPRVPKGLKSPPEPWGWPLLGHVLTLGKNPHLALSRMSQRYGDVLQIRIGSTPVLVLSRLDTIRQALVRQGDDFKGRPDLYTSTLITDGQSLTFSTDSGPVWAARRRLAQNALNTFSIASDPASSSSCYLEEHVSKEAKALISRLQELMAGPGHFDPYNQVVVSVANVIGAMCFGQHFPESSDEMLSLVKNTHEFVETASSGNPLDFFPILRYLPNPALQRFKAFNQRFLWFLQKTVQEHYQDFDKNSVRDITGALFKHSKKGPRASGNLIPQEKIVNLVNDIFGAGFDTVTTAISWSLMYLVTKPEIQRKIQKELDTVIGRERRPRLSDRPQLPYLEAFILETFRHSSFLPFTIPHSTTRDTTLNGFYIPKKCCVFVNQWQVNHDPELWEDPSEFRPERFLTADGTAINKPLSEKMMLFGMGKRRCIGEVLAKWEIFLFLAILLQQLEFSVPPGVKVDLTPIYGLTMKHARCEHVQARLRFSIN
Procedure: (§1) The purpose of this study was to evaluate the effects of the test compounds on the activities of five isoenzymes (CYP1A2, CYP2C9, CYP2C19, CYP2D6, and CYP3A4) of human liver microsomal cytochrome P450 (CYP) using an in vitro testing system. The specific probe substrates of CYP450 isoenzymes were incubated with human liver microsomes and test compounds of different concentrations, and reduced nicotinamide adenine dinucleotide phosphate (NADPH) was added to initiate the reaction. After the completion of the reaction, the sample was treated and liquid chromatography-tandem mass spectrometry (LC-MS/MS) was used to quantitatively detect metabolites produced by specific substrates. Changes in CYP enzyme activity were determined, and IC50 value was calculated to evaluate the inhibitory potential of the test compound on each CYP enzyme subtype.

CYP2C19 = target: T2, CYP2C19 (Homo sapiens, UniProt P33261); experiment: as above; format: in vitro ADME
T2 construct: from tissue; host or cells: human liver microsomes
Procedure: as §1

CYP2C9 = target: T3, CYP2C9 (Homo sapiens, UniProt P11712); experiment: as above; format: in vitro ADME
T3 construct: from tissue; host or cells: human liver microsomes
Procedure: as §1

CYP2D6 = target: T4, CYP2D6 (Homo sapiens, UniProt P10635); experiment: as above; format: in vitro ADME
T4 construct: from tissue; host or cells: human liver microsomes
Procedure: as §1

CYP3A4 = target: T5, CYP3A4 (Homo sapiens, UniProt P08684); experiment: as above; format: in vitro ADME
T5 construct: from tissue; host or cells: human liver microsomes
Procedure: as §1

OATP1B3 = OATP1B3 (Homo sapiens, UniProt Q9NPD5); experiment: in vitro; settings: oatp1b3 cells
Procedure: (§2) The objective of this study was to evaluate the inhibitory effects of the test substance on the activities of the transporters OATP1B1 and OATP1B3.
(§3) HEK293-OATP1B1 and OATP1B3 cells were incubated with and without the test substance (0-30 µM) for the corresponding time. Samples were then collected, and the substrate content in the samples was detected by liquid chromatography-tandem mass spectrometry (LC-MS/MS). By calculating the transport activity of the transporter with and without the test substance, the percentage of transporter activity of the transporter-expressing cells at different administration concentrations of the test substance (%VC (Vehicle Control, solvent control), the percentage of transport activity of the transporter with and without the test substance) was obtained, and the half-maximal inhibitory concentration (IC50) was calculated from this.

OATP1B1 = target: T6, OATP1B1 (Homo sapiens, UniProt Q9Y6L6); experiment: SLC transporter inhibition assay (HEK293-OATP1B1 cells); format: in vitro ADME; settings: test substance 0-30 µM, read-out: IC50 against OATP1B1
T6 construct: expressed in transfected cells; host or cells: HEK293
T6 sequence (Q9Y6L6 1-691): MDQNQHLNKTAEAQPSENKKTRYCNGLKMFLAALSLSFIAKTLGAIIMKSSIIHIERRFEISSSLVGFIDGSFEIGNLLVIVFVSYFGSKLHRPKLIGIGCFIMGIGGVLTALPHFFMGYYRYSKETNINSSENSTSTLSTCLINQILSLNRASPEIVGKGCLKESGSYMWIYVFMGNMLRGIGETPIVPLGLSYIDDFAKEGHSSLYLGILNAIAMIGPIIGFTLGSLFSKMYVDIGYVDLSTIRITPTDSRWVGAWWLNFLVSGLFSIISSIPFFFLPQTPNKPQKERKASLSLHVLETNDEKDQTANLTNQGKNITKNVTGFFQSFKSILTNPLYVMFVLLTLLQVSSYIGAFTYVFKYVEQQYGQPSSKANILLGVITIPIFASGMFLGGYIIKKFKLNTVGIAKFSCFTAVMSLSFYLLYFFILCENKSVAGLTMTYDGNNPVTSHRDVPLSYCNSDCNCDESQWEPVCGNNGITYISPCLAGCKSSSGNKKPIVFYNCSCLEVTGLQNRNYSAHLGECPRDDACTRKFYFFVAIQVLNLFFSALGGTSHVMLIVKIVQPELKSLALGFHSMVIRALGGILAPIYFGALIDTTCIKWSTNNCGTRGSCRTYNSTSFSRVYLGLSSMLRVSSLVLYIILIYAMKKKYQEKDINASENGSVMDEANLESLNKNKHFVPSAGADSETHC
Procedure: as §2, §3

GLP-1R [1] = target: T7, GLP-1R (Homo sapiens, UniProt P43220); experiment: In vitro activity assay (cAMP HTRF, HEK293-CRE-luc-GLP-1R cells); format: cell-based; set-up: expressed in transfected cells; host or cells: HEK293 (HEK293-CRE-luc-GLP-1R); settings: cAMP HTRF 665 nm/620 nm, 1 h incubation
Procedure: HEK293-CRE-luc-GLP-1R cells were seeded into a 384-well cell culture plate (Greiner #781946) at a certain cell density (5 µL/well). 5 µl/well of 2× working solution was added to the 384-well microplate. The microplate was sealed with parafilm and incubated in a 37°C 5% CO2 incubator (Thermo) for 1 h. Subsequently, the detection was performed using the cAMP-GS HIRANGE KIT (PerkinElmer, 62AM6PEB), and detection reagents were prepared according to the kit instruction manual. After the incubation, the detection reagents were added to the 384-well microplate, and the microplate was incubated for 1 h at room temperature in the dark. HTRF signals at 665 nm and 620 nm were then measured using a multimode microplate reader. Data were exported from the microplate reader in Excel format. GraphPad Prism was opened. The logarithm of the sample concentration was calculated. Using the logarithm of concentration as the x-axis and the 665 nm/620 nm ratio as the y-axis, four-parameter logistic fitting was performed to obtain the EC50 value of the curve. Table 1: EC50 of compounds against GLP-1

[2] = Mouse pharmacokinetic assay; format: in vivo, male C57 mice; settings: male, C57, mouse, plasma, mice
Procedure: Experimental animals: male C57 mice, 22-25 g, 6 mice/compound.
Experimental design: on the day of the experiment, C57 mice were randomly grouped according to body weight. The animals were fasted with water available for 12 h to 14 h one day before the administration, and were fed 4 h after the administration. Table 2. Administration information
Before and after the administration, 0.06 mL of blood was taken from the orbits under isoflurane anaesthesia and placed in an EDTAK2 centrifuge tube. The blood was centrifuged at 5000 rpm at 4°C for 10 min, and the plasma was collected. The blood collection time points for the intravenous administration group and intragastric administration group were 0, 5 min, 15 min, 30 min, 1 h, 2 h, 4 h, 7 h and 24 h. Before analysis and detection, all samples were stored at -80°C, and the samples were quantitatively analysed by LC-MS/MS. Table 2-1 Pharmacokinetic results of test compounds in mice

[3] = Monkey pharmacokinetic assay; format: in vivo, male cynomolgus monkeys; settings: male, cynomolgus monkey, plasma, monkeys
Procedure: Experimental animals: male cynomolgus monkeys, 3-5 kg, 3-6 years old, 5 monkeys/compound, purchased from Hainan New Source Biotechnology Co., Ltd.
Experimental method: On the day of the experiment, five monkeys were randomly grouped according to body weight, with two in the intravenous administration group and three in the intragastric administration group. The animals were fasted with water available for 14 h to 18 h one day before the administration, and were fed 4 h after the administration. Table 3. Administration information

GLP-1R [4] = target: T7, GLP-1R; experiment: Oral glucose tolerance test (OGTT); format: in vivo, male C57BL/6-G1p1rem2 (hGLP1R) Smoc mice; set-up: from tissue; host or cells: whole animal: male C57BL/6-Glp1r em2(hGLP1R) Smoc knock-in mice; settings: 3 mg/kg, orally administered; from blood glucose AUC0-2 h after glucose load
Procedure: OGTT experiment was performed in male C57BL/6-G1p1rem2 (hGLP1R) Smoc mice to evaluate the hypoglycaemic effect of GLP-1 receptor agonists. The animals were fasted for more than 16 hours and randomly grouped. Tail tip blood was collected and basal fasting blood glucose (FBG) was measured using a blood glucose meter. Mice with FBG in the range of 3.5-6.5 mmol/L were selected and orally administered, and the control group was administered the vehicle. 15 min after administration, each group of animals was intragastrically administered with 25% glucose solution. Blood glucose levels were measured in tail tip blood collected 15 min, 30 min, 45 min, 1 h, and 2 h after glucose administration. 0-2 h blood glucose AUC0-2 h was calculated using the Graphpad Prism software, and the inhibition rate was further calculated. [formula]

T2 sequence (P33261 whole entry): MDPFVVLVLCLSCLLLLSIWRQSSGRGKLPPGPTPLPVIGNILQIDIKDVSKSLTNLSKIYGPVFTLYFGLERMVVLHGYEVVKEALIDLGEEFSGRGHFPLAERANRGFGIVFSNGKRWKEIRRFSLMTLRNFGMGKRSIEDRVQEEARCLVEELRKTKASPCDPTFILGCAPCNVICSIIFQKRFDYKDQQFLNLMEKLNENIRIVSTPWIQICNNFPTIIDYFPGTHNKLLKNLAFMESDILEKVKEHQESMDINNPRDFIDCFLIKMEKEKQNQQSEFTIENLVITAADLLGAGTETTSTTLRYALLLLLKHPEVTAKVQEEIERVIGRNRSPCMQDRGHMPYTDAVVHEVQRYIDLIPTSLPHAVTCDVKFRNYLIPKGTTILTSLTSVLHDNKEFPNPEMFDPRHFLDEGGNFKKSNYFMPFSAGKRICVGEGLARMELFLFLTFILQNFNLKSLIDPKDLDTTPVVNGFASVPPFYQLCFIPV
T5 sequence (P08684 whole entry): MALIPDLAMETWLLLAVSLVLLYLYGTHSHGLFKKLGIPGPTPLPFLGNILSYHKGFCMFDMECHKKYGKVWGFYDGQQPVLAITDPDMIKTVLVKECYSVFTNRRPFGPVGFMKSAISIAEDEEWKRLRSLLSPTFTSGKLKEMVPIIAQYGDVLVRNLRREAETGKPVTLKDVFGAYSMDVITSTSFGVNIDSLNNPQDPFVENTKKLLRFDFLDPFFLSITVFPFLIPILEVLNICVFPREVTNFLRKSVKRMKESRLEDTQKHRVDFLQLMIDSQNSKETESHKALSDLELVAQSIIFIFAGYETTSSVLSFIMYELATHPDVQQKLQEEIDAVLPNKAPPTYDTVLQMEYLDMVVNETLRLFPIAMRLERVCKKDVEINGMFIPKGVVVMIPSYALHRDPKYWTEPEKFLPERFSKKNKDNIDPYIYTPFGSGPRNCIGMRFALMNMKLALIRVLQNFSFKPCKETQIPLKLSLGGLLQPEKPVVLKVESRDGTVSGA
T4 sequence (P10635 whole entry): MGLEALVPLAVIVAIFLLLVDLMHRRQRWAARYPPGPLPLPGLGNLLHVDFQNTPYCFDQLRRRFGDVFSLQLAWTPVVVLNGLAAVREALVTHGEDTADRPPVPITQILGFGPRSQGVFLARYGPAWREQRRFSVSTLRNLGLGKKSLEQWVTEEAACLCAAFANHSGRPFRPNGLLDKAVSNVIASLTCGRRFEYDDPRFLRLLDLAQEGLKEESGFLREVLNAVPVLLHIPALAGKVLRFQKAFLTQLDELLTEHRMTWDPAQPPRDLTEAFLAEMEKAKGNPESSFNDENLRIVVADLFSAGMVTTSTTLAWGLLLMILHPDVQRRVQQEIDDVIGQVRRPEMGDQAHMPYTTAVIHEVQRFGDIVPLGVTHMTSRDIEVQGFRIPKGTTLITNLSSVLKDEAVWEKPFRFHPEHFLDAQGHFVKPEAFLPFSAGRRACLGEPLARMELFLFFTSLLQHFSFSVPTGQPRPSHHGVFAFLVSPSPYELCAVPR
T7 sequence (P43220 24-463): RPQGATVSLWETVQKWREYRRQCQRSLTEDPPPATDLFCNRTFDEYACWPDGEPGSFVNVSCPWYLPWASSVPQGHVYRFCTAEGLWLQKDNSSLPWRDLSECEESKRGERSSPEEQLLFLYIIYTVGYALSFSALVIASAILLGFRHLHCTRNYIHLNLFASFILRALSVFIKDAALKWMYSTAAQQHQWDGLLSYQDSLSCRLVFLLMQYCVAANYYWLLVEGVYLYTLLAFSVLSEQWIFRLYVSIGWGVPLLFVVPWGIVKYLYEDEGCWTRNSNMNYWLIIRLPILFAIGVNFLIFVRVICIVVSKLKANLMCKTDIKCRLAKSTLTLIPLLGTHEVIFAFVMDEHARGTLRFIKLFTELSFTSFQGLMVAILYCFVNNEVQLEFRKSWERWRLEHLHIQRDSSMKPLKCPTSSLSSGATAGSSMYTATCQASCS
T3 sequence (P11712 whole entry): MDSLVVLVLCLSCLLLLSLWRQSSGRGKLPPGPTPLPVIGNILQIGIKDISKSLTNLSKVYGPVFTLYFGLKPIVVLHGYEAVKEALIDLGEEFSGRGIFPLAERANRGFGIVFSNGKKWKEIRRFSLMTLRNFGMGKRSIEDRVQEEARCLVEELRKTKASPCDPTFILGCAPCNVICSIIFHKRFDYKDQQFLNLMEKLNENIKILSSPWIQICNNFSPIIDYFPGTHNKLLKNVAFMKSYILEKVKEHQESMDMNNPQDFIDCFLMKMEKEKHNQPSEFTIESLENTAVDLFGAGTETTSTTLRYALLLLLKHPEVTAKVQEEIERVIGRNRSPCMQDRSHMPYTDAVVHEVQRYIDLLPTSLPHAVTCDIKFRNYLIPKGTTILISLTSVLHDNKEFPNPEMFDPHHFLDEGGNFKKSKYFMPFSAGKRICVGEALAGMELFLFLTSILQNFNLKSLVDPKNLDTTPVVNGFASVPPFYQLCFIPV
Sequence of OATP1B3 (Q9NPD5 whole entry, species assumed): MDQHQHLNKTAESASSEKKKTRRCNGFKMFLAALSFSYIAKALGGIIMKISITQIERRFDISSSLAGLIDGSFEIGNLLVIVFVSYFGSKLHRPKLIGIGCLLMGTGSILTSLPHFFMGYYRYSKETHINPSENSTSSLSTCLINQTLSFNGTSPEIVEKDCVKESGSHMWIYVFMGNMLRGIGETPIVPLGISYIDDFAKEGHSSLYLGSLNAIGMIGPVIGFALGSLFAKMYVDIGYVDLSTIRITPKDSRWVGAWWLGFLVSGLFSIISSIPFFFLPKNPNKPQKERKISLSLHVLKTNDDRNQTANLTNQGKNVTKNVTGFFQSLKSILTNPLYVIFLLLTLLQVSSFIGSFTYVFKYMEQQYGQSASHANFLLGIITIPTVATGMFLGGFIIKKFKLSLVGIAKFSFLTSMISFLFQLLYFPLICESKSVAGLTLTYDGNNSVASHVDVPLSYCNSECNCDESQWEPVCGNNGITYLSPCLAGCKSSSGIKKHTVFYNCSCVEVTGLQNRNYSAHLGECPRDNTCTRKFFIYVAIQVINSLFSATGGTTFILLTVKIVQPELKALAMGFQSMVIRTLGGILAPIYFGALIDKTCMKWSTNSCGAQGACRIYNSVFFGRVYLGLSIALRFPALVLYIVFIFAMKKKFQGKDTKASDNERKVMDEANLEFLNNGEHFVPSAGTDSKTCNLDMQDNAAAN

Compound | pIC50 (CYP1A2; human, microsomes) | pIC50 (CYP2C19; human, microsomes) | pIC50 (CYP2C9; human, microsomes) | pIC50 (CYP2D6; human, microsomes) | pIC50 (CYP3A4; human, microsomes) | pIC50 (OATP1B3) | pIC50 (OATP1B1) | pEC50 (GLP-1R [1]) | IC50 (CYP1A2; human liver microsomes, NADPH, read-out: IC50 (µM) CYP1A2) [µM] | IC50 (CYP2C19; human liver microsomes, NADPH, read-out: IC50 (µM) CYP2C19) [µM] | IC50 (CYP2C9; human liver microsomes, NADPH, read-out: IC50 (µM) CYP2C9) [µM] | IC50 (CYP2D6; human liver microsomes, NADPH, read-out: IC50 (µM) CYP2D6) [µM] | IC50 (CYP3A4; human liver microsomes, NADPH, read-out: IC50 (µM) CYP3A4) [µM] | bioavailability ([2]; oral, intragastric administration 10 mg/kg (intravenous 2.5 mg/kg)) [%] | AUC(0-t) ([2]; po, intragastric administration 10 mg/kg) [ng·h/mL] | bioavailability ([3]; oral, intragastric administration 5 mg/kg (intravenous 1 mg/kg)) [%] | AUC(0-t) ([3]; po, intragastric administration 5 mg/kg) [ng·h/mL] | blood glucose inhibition rate (GLP-1R [4]) [%]
C[C@H]1c2c(nn(-c3ccc(F)c(C4(F)CC4)c3)c2-n2ccn(-c3ccc4c(c3)N(C)C(=O)C43CCOCC3)c2=O)CCN1C(=O)c1cc2cc([C@H]3CCOC(C)(C)C3)ccc2n1[C@@]1(c2noc(=O)[nH]2)C[C@@H]1C [Compound 6] | < 4.52 | < 4.52 | < 4.52 | < 4.52 | < 4.52 | < 6.00 | < 5.70 | > 9.00 |  |  |  |  |  |  |  |  |  | 
Cc1cc(-n2nc3c(c2-n2ccn(-c4ccc5c(cnn5C)c4F)c2=O)[C@H](C)N(C(=O)c2cc4cc([C@H]5CCOC(C)(C)C5)ccc4n2[C@@]2(c4noc(=O)[nH]4)C[C@@H]2C)CC3)cc(C)c1F [Orforglipron, reference compound] |  |  |  |  |  |  |  |  | > 30 | > 30 | 0.905 | > 30 | > 30 | 7.93 | 3260 | 1.93 | 584 | -9.8
